Test results reported in ChEMBL document CHEMBL5370572, “Coscinoderines A-J: Trisubstituted Pyridinium-Containing Norterpenoids Isolated from Coscinoderma bakusi, a Tropical Marine Sponge” (J Nat Prod, 2023).
Activity calls are given as the source filed them. The rule behind the calls is not given here.

What was measured:
[1] = test system: Micrococcus luteus; experiment: Antibacterial activity against Micrococcus luteus KCTC 1915 assessed as inhibition of bacterial growth at 72.6 uM; type: functional, organism-based
[2] = test system: HEK293; experiment: Cytotoxicity against HEK293 cells assessed as reduction in cell proliferation at 1.25 to 80 uM measured after 48 hrs by MTS assay; type: toxicity, cell-based; conditions: human, hek293, 48 h, dose 1.25-80 µM
[3] = test system: Staphylococcus aureus; experiment: Antibacterial activity against Staphylococcus aureus ATCC 25923 assessed as inhibition of bacterial growth at 45.4 uM; type: functional, organism-based
[4] = test system: Micrococcus luteus; experiment: Antibacterial activity against Micrococcus luteus KCTC 1915 assessed as inhibition of bacterial growth at 75 uM; type: functional, organism-based

Row | Compound | inhibition [1] | Activity [2] | inhibition [3] | inhibition [4]
1 | C=C(C)[C@@]1(CC/C(C)=C/CCCc2ccc(CC(=O)O)c[n+]2C[C@@H](C)CC)CCC[C@H]1C | Active | Non-Toxic | Active | 
2 | C=C(C)[C@@]1(CC/C(C)=C/CCCc2ccc(CC(=O)O)c[n+]2CC(C)C)CCC[C@H]1C |  | Non-Toxic |  | Active
3 | CC(C)=CCC/C(C)=C/CC/C(C)=C/CCCc1ccc(CC(=O)O)c[n+]1CC(=O)O |  | Non-Toxic |  | 
4 | CC1=C(CC/C(C)=C/CCCc2ccc(CC(=O)O)c[n+]2CCS(=O)(=O)O)C(C)(C)CCC1 |  | Non-Toxic |  | 
